A short description of series [1]: Evaluation of phase transition temperature by polarizing microscope. Particulars: for TNi(° C.) Isotropic Phase Transition Point / Tsm—N(° C.) Sm—N Transition Point: during temperature increase; for Phase Transition Temperature Evaluation of Decrease: versus comparative compound with the same Ar and side chain portion of Formula (Ia). Type of series: physicochemical. From the text: Here, the temperature at which the compound transitions from the smectic phase to the nematic phase may be easily measured by observation of the composition employing polarized light microscopy. For example, in the nematic phase, a schlieren texture specific to the nematic phase is observed, while the texture transitions to a focal conic fan texture in a smectic A phase. Therefore, the phase transition temperature can be measured by observing the textures with a polarizing microscope while increasing or decreasing the temperature.
The phase transition temperatures of the synthesized liquid crystal compounds of the Examples and Comparative Examples were observed using a polarizing microscope to evaluate the degrees of temperature decrease. Specifically, the compounds of the Examples were compared to the compounds of the Comparative Examples, which have different structures for the side chain portions thereof. That is, the phase transition temperature of a compound of a Comparative Example having Ar (the aromatic ring at the center of General Formula 1) in common with the Examples and a side chain portion represented by Formula (Ia) below was used as a reference. Evaluations of A through C were assigned according to the degree of temperature decrease from the reference phase transition temperature.
(§1) For example, compound (I-1) and (I-2) were compared to Comparative Compound (Ia-1), and Compound (III-3) was compared to Comparative Compound (IIIa-3). The evaluation was carried out based on the following criteria.
A: decrease in melting point or Sm-N (smectic-nematic) transition temperature is 20° C. or greater
B: decrease in melting point or Sm-N (smectic-nematic) transition temperature is 5° C. or greater and less than 20° C.
C: decrease in melting point or Sm-N (smectic-nematic) transition temperature is less than 5° C.
With respect to the phase transition temperature, the numerical value in parentheses represents the numerical value during temperature decrease, and other numerical values represent a numerical value during temperature increase.

Series [2] in a line: Measurement and evaluation of solubility in MEK and CPN. Type of series: physicochemical. On the set-up: key to Solubility Evaluation: A: solubility improved twofold or greater in plural solvents or a single solvent; B: solubility was the same or improved up to twofold in plural solvents or a single solvent; C: no improvement in solubility in plural solvents or a single solvent. The conditions noted are these: for Solubility CPN wt %: cyclopentanone; for Solubility CPN wt % / Solubility MEK wt %: room temperature, visual observation, 5 wt % increments; for Solubility MEK wt %: methyl ethyl ketone; for Solubility Evaluation: versus comparative compound with the same Ar and side chain portion of Formula (Ia). As to the method:
Solubility measurements of the synthesized liquid crystal compounds were conducted by the following method. 50 mg of each compound was weighted into a 1.5 mL sample bottle, and solvent was added until the solid component became 40 wt % (75 mg). The solubility was determined to be 40 wt % if clear under visual observation after shaking well manually at room temperature. If undissolved residue was present, solvent was added such that the solid component became 35 wt % (+18 mg). The solubility was determined to be 35 wt % if clear under visual observation after shaking well manually at room temperature. If undissolved residue was present, solvent was added such that the solid component became 30 wt %. Similar operations were performed in increments of 5 wt %, and repeated until the solid component became 5 wt %. If undissolved residue was present, the solubility was determined to be less than 5 wt % (<5 wt %), and measurements were completed. MEK (methyl ethyl ketone) and CPN (cyclopentanone) were utilized as solvents for measuring solubility.
The measured values of solubility were evaluated. The evaluations were conducted by using solubility of a compound of a Comparative Example having Ar (the aromatic ring at the center of General Formula 1) in common with the Examples and a side chain portion represented by Formula (Ia) as a reference, in a manner similar to that in the evaluation of the phase transition temperature. Evaluations of A through C were assigned according to the degree of improvement in solubility from the reference solubility.
as §1
A: solubility improved twofold or greater in plural solvents or a single solvent
B: solubility was the same or improved up to twofold in plural solvents or a single solvent
C: no improvement in solubility in plural solvents or a single solvent

Each structure is given as a SMILES string.

This is an account of results in US11072741B2, “Optically anisotropic layer, method for producing the optically anisotropic layer, a laminate, polarizing plate, display device, liquid crystal compound, method for producing the liquid crystal compound, and carboxylic acid compound” (FUJIFILM Corporation, priority 2014, dated 2021).

In general, melting point refers to the temperature of the solid-liquid transition. Consider `C=CC(=O)OCCCCOC(=O)[C@H]1CC[C@H](C(=O)O[C@H]2CC[C@H](C(=O)Oc3ccc(OC(=O)[C@H]4CC[C@H](OC(=O)[C@H]5CC[C@H](C(=O)OCCCCOC(=O)C=C)CC5)CC4)c4c3SC(=C(C#N)C#N)S4)CC2)CC1` [Ib-1], for which the melting point is 170 °C. In series [1], the “TNi(° C.) Isotropic Phase Transition Point” value is 206 °C and the “Phase Transition Temperature Evaluation of Decrease” value is listed as “C (decrease in melting point or Sm-N (smectic-nematic) transition temperature is less than 5° C.)”. Further, in series [2], the “Solubility CPN wt %” value is listed as 10 wt %, the “Solubility MEK wt %” value is given as under 5 wt % and the “Solubility Evaluation” value is “C”.

`C=CC(=O)OCCCCOc1ccc(C(=O)Oc2ccc(C(=O)Oc3ccc(OC(=O)c4ccc(OC(=O)c5ccc(OCCCCOC(=O)C=C)cc5)cc4)c4c3SC(=C(C#N)C#N)S4)cc2)cc1` [Ic-1] returned a melting point of 185 °C. In series [1], the “TNi(° C.) Isotropic Phase Transition Point” value is >210^ ° C and the “Phase Transition Temperature Evaluation of Decrease” value was “C (decrease in melting point or Sm-N (smectic-nematic) transition temperature is less than 5° C.)”. Also, in series [2], the “Solubility CPN wt %” value is reported as under 10 wt %, the “Solubility MEK wt %” value is listed as under 5 wt % and the “Solubility Evaluation” value is given as “C”.

Take `C=CC(=O)OCCOC(=O)CCC(=O)OCCc1ccc(OC(=O)[C@H]2CC[C@H](C(=O)Oc3ccc(OC(=O)[C@H]4CC[C@H](C(=O)Oc5ccc(CCOC(=O)CCC(=O)OCCOC(=O)C=C)cc5)CC4)c(/C=N/Nc4nc5ccccc5s4)c3)CC2)cc1` [VI-1]: the melting point was found to be 134 °C. In series [1], the “TNi(° C.) Isotropic Phase Transition Point” value was 190 °C and the “Phase Transition Temperature Evaluation of Decrease” value is “A (decrease in melting point or Sm-N (smectic-nematic) transition temperature is 20 °C or greater)”. Further, in series [2], the “Solubility CPN wt %” value amounted to 35 wt %, the “Solubility MEK wt %” value came out at 20 wt % and the “Solubility Evaluation” value is given as “A (solubility improved twofold or greater in plural solvents or a single solvent)”.

`C=CC(=O)OCCOC(=O)CCC(=O)OCCc1ccc(OC(=O)[C@H]2CC[C@H](C(=O)Oc3ccc(OC(=O)[C@H]4CC[C@H](C(=O)Oc5ccc(CCOC(=O)CCC(=O)OCCOC(=O)C=C)cc5)CC4)c4sc(=S)sc34)CC2)cc1` [VI-7] showed a melting point of 123 °C. Also, in series [1], the “TNi(° C.) Isotropic Phase Transition Point” value was 145 °C, the “Tsm—N(° C.) Sm—N Transition Point” value was 137 °C and the “Phase Transition Temperature Evaluation of Decrease” value was “A (decrease in melting point or Sm-N (smectic-nematic) transition temperature is 20 °C or greater)”. Also, in series [2], the “Solubility CPN wt %” value worked out at 25 wt %, the “Solubility MEK wt %” value turned out to be 15 wt % and the “Solubility Evaluation” value is “B (solubility was the same or improved up to twofold in plural solvents or a single solvent)”.

Consider `C=CC(=O)OCCCCCCOc1ccc(OC(=O)[C@H]2CC[C@H](C(=O)Oc3ccc(OC(=O)[C@H]4CC[C@H](C(=O)Oc5ccc(OCCCCCCOC(=O)C=C)cc5)CC4)c(/C=N/Nc4nc5ccccc5s4)c3)CC2)cc1` [VIa-1], for which the melting point stood at 163 °C. Further, the “TNi(° C.) Isotropic Phase Transition Point” value in series [1] was determined as 279 °C. In series [2], the “Solubility CPN wt %” value was 20 wt % and the “Solubility MEK wt %” value is on record as 10 wt %.

`C=CC(=O)OCCCCCCOc1ccc(OC(=O)[C@H]2CC[C@H](C(=O)Oc3ccc(OC(=O)[C@H]4CC[C@H](C(=O)Oc5ccc(OCCCCCCOC(=O)C=C)cc5)CC4)c4sc(=S)sc34)CC2)cc1` [VIa-7] yielded a melting point of 124 °C. In series [1], the “TNi(° C.) Isotropic Phase Transition Point” value is 247 °C and the “Tsm—N(° C.) Sm—N Transition Point” value was determined as 164 °C. In series [2], the “Solubility CPN wt %” value is 20 wt % and the “Solubility MEK wt %” value is listed as under 10 wt %.
